Results from patent publication US7029840B2 (priority 2000, dated 2006).
Read-outs that look alike come from different tables or passages of the source.

Columns and labels:
[1] = test system: intact cells of N. gonorrhoeae; assay: Stability of cells of N. gonorrhoeae in urine with sodium citrate, 14 days at room temperature (SDA, MOTA value); format: cell-based, N. gonorrhoeae ATCC 19424; settings: 100 mM; for Average MOTA Value: urine
Procedure: (§1) The samples were spiked with cells of N. gonorrhoeae a final concentration 2500 cells/ml. Each sample was incubated for 14 days at room temperature. At specific time points (day 0, 6, and 14), 2.0-ml volumes of each sample (eight replicates) was centrifuged at 2000×g for 30 minutes at room temperature. The supernate was decanted and the cell pellet was resuspended with a 2.0-ml volume of BSA/PBS, and then centrifuged at 2000×g for 30 minutes at room temperature. Again, the supernatant was decanted and the cell pellet was resuspended with a 2.0-ml volume of CT/GC diluent. […] SDA was performed on the cell lysate as described in Example 1.

[2] = test system: intact cells of N. gonorrhoeae; format: cell-based, N. gonorrhoeae ATCC 19424; settings: urine, room temperature; for average amplification MOTA values at day 0 versus day 6: 100 mM sodium citrate, sodium fluoride, sodium borate, 5 mM EDTA
Procedure: as §1
Forty-milliliter volumes of negative urine was prepared with 100 mM sodium citrate (final concentration); 5, 10, and 15% (v/v) sucrose (final concentration); 5, 10, and 15% (v/v) PVP (final concentration); 5, 10, and 15 mM magnesium chloride (final concentration); 10 and 100 mM sodium fluoride (final concentration); 10 and 100 mM sodium formate (final concentration); 10 and 100 mM sodium borate (final concentration); 0.5 and 5 mM EDTA (final concentration); 0.5 and 5 mM EGTA (final concentration); and without chemical additive. The samples were spiked with cells of N. gonorrhoeae at a final concentration of 2500 cells/ml. Each sample was incubated for 6 days at room temperature. At specific time points (day 0 and 6), the samples were processed by centrifugation at 2000×g as described in Example 2. […] SDA was performed on the cell lysate as described in Example 1.

[3] = test system: intact cells of N. gonorrhoeae; format: cell-based, N. gonorrhoeae ATCC 19424; settings: for average MOTA values for day 0 versus day 6: 100 mM sodium citrate, sodium fluoride, sodium borate, 5 mM EDTA, urine at 5, 25, 35, and 45° C.; for Average MOTA Value: urine
Procedure: as §1
The samples were spiked with cells of N. gonorrhoeae at a final concentration of 2500 cells/ml. Each sample was incubated for 6 days at 5, 25, 35, and 45° C. At specific time points (day 0 and 6), the samples were processed by centrifugation at 2000×g as described in Example 2. […] SDA was performed on the cell lysates as described in Example 1.

[4] = test system: N. gonorrhoeae plasmid DNA; assay: Stability of N. gonorrhoeae plasmid DNA in urine, 3 days at room temperature (SDA, MOTA value); format: biochemical, Neisseria gonorrhoeae
Procedure: The samples were incubated for 3 days at room temperature. […] SDA was performed on the isolated DNA as described in Example 1.

[5] = test system: N. gonorrhoeae plasmid DNA; settings: for Average MOTA Value: 60 min room temperature after DNA spike; for protection of N. gonorrhoeae plasmid DNA from degradation in human urine by endogenous nucleases: sodium citrate at 10, 20, and 40 mM, EDTA at 10, 40, 100 mM (so in the source)
Procedure: Twenty-milliliter volumes of negative pooled urine were prepared with 10, 40, and 100 mM sodium citrate (final concentration); 10, 20, and 40 mM EDTA (final concentration); and without chemical additive. In addition, a 20-ml volume of negative pooled urine was heated for 30 minutes (heated-treated urine). The samples were incubated for 60 minutes at room temperature. After the incubation step, the samples were spiked with N. gonorrhoeae plasmid DNA (2500 DNA copies/ml). The samples were incubated for 60 minutes at room temperature. After the incubation step, two-ml volumes from each sample (eight replicates) were heated for 30 minutes at 114° C. to denature the DNA.
A 1-ml volume of the 8 replicates as described above was added to ferrosoferric oxide. A 100-ul volume of 6 M glycine HCl was added to each sample. The DNA-ferrosoferric oxide complexes were separated on a magnet and washed two times with a 900-ul volume of 1 mM glycine HCl to reduce the ionic strength and remove nonspecifically bound materials. The DNA was released from the ferrosoferric oxide with 480-ul volume of elution buffer (88.3 mM KOH, 177.8 mM bicine, 12.1% (v/v) glycerol, and 11.0% (v/v) DMSO [final concentration]).
Strand Displacement Amplification (SDA) was performed according to the manufacturer's instructions (BDProbeTec™ET Chlamydia trachomatis and N. gonorrhoeae Amplified DNA Assay Package Insert L-000203 [November 1999]). A 150-ul volume of each sample was added into a priming microwell. The priming microwell plate was incubated for 20 minutes at room temperature, after which the plate was incubated at 72.5° C. The amplification microwell plate was incubated at 54° C. After 10 minutes, a 100-ul volume from each priming microwell was added into the corresponding amplification microwell. The amplification microwell plate was place in a BD ProbeTec ET instrument. Data was reported as MOTA value (metric other than acceleration).

[6] = test system: intact cells of N. gonorrhoeae; format: cell-based, N. gonorrhoeae ATCC 19424; settings: for Average MOTA Value: 10 mM potassium EDTA, urine
Procedure: as §1
i) Potassium EDTA: Seventy-milliliter volumes of pooled negative urine were prepared with 10 mM potassium EDTA (final concentration). The samples were spiked with cells of N. gonorrhoeae at a final concentration of 2000 cells/ml. Each sample was incubated for 14 days at 5, 25, 33, 45, and 60° C. At specific time points (day 0, 6 and 14), the samples were processed by centrifugation at 2000×g as described in Example 3. […] SDA was performed on the cell lysates as described in Example 1.
ii) DNA/RNA Protect™: Seventy-milliliter volumes of pooled negative urine were prepared with 10% (v/v) DNA/RNA Protect™ (final concentration). The samples were spiked with cells of N. gonorrhoeae at a final concentration of 2000 cells/ml. Each sample was incubated for 14 days at 5, 25, 33, 45, and 60° C. At specific time points (day 0, 6 and 14), the samples were processed by centrifugation at 2000×g as described in Example 3. […] SDA was performed on the cell lysates as described in Example 1.

O=C([O-])CC(O)(CC(=O)[O-])C(=O)[O-].[Na+].[Na+].[Na+] [sodium citrate, Sodium citrate, trisodium salt]
time for which stability of intact cells of N. gonorrhoeae in human urine was maintained [1]: ≥ 14 days | Average MOTA Value ([1]; Day 0): 30200 | Average MOTA Value ([1]; Day 6): 25391 | Average MOTA Value ([1]; Day 10): 27522 | Average MOTA Value ([1]; Day 14): 20953 | average amplification MOTA values at day 0 versus day 6 [2]: not significantly different | Average MOTA Value ([2]; 100 mM, Day 0): 27310 | Average MOTA Value ([2]; 100 mM, Day 6): 26394 | average MOTA values for day 0 versus day 6 [3]: no significant difference | Average MOTA Value ([3]; 100 mM, 5° C., Day 0): 56773 | Average MOTA Value ([3]; 100 mM, 5° C., Day 6): 57701 | Average MOTA Value ([3]; 100 mM, 25° C., Day 0): 59703 | Average MOTA Value ([3]; 100 mM, 25° C., Day 6): 51791 | Average MOTA Value ([3]; 100 mM, 35° C., Day 0): 54238 | Average MOTA Value ([3]; 100 mM, 35° C., Day 6): 51468 | Average MOTA Value ([3]; 100 mM, 45° C., Day 0): 59944 | Average MOTA Value ([3]; 100 mM, 45° C., Day 6): 63623 | Average MOTA Value ([4]; 100 mM, Day 0): 26852 | Average MOTA Value ([4]; 100 mM, Day 3): 30978 | Average MOTA Value ([5]; 10 mM additive in human urine): 6673 | Average MOTA Value ([5]; 40 mM additive in human urine): 36684 | Average MOTA Value ([5]; 100 mM additive in human urine): 24069 | protection of N. gonorrhoeae plasmid DNA from degradation in human urine by endogenous nucleases [5]: protected N. gonorrhoeae plasmid DNA from degradation

O=C(O)CN(CCN(CC(=O)O)CC(=O)O)CC(=O)O [EDTA, Ethylenediaminetetraacetic acid]
Average MOTA Value ([2]; 0.5 mM, Day 0): 35950 | Average MOTA Value ([2]; 0.5 mM, Day 6): 650 | Average MOTA Value ([2]; 5 mM, Day 0): 32392 | Average MOTA Value ([2]; 5 mM, Day 6): 34445 | average amplification MOTA values at day 0 versus day 6 [2]: not significantly different | Average MOTA Value ([3]; 5 mM, 5° C., Day 0): 50132 | Average MOTA Value ([3]; 5 mM, 5° C., Day 6): 64610 | Average MOTA Value ([3]; 5 mM, 25° C., Day 0): 54871 | Average MOTA Value ([3]; 5 mM, 25° C., Day 6): 66009 | Average MOTA Value ([3]; 5 mM, 35° C., Day 0): 57077 | Average MOTA Value ([3]; 5 mM, 35° C., Day 6): 69291 | Average MOTA Value ([3]; 5 mM, 45° C., Day 0): 62891 | Average MOTA Value ([3]; 5 mM, 45° C., Day 6): 74667 | average MOTA values for day 0 versus day 6 [3]: no significant difference | Average MOTA Value ([4]; 10 mM, Day 0): 32177 | Average MOTA Value ([4]; 10 mM, Day 3): 30445 | Average MOTA Value ([4]; 20 mM, Day 0): 34594 | Average MOTA Value ([4]; 20 mM, Day 3): 31366 | time for which stability of intact cells of N. gonorrhoeae in human urine was maintained ([6]; 10 mM EDTA, 5, 27, 33, 45, and 60° C.): ≥ 14 days | Average MOTA Value ([6]; 5° C., Day 0): 26448 | Average MOTA Value ([6]; 5° C., Day 6): 35234 | Average MOTA Value ([6]; 5° C., Day 14): 36205 | Average MOTA Value ([6]; 27° C., Day 0): 26448 | Average MOTA Value ([6]; 27° C., Day 6): 31619 | Average MOTA Value ([6]; 27° C., Day 14): 36994 | Average MOTA Value ([6]; 33° C., Day 0): 26448 | Average MOTA Value ([6]; 33° C., Day 6): 34252 | Average MOTA Value ([6]; 33° C., Day 14): 38183 | Average MOTA Value ([6]; 45° C., Day 0): 26448 | Average MOTA Value ([6]; 45° C., Day 6): 36132 | Average MOTA Value ([6]; 45° C., Day 14): 41115 | Average MOTA Value ([6]; 60° C., Day 0): 26448 | Average MOTA Value ([6]; 60° C., Day 6): 32218 | Average MOTA Value ([6]; 60° C., Day 14): 26259 | Average MOTA Value ([5]; 10 mM additive in human urine): 16103 | Average MOTA Value ([5]; 20 mM additive in human urine): 16178 | Average MOTA Value ([5]; 40 mM additive in human urine): 20007 | protection of N. gonorrhoeae plasmid DNA from degradation in human urine by endogenous nucleases [5]: protected N. gonorrhoeae plasmid DNA from degradation
